# Laboratory results as given in publication PMC11096368, “Transcriptomic signature, bioactivity and safety of a non-hepatotoxic analgesic generating AM404 in the midbrain PAG region” (Scientific Reports, 2024).
# Read-outs that look alike come from different tables or passages of the source.
# Legend:
# [1] = Phase 1 multiple ascending dose (MAD) pharmacokinetics; type: in vivo, human; conditions: for half-life: human, plasma, oral
# Method: A randomized, double-blind, placebo-controlled Phase 1 trial (ClinicalTrials.gov identifier: NCT05484414) (02/08/2022) was conducted to assess the safety, tolerability, food effect, pharmacokinetics (PK), and pharmacodynamics (PD) of single and multiple ascending doses of SRP-001 (Quotient Sciences, Miami FL USA; Fig. 3h - k and Methods). The trial was conducted in accordance with the International Council for Harmonisation of Technical Requirements for Pharmaceuticals for Human Use (ICH), Guideline for GCP: Consolidated Guidance (E6), attained Institutional Review Board approval, and all applicable regulatory requirements for Phase 1, First in Human clinical trials. Safety measurements and plasma samples to determine PK parameters were collected throughout the study for all subjects and reviewed by the Safety Review Committee. PK stopping criteria were established to assure that systemic exposure to SRP-001 was less than or equal to the systemic exposure achieved at the NOAEL doses in the 28-day repeat-dose toxicology studies in the rat and dog. The trial’s Safety Advisory Committee has approved the publication of the Phase 1 results.
# SRP-001 was administered as an oral nanosuspension to 56 healthy volunteers across five Single Ascending Dose (SAD) and two Multiple Ascending Dose (MAD) cohorts, with 42 subjects receiving SRP-001 and 14 receiving a placebo.
# A two-part randomized, double-blind, placebo-controlled Phase 1 trial was conducted to assess the safety, tolerability, PK and PD of SRP-001 ascending doses (Quotient Sciences, Miami, FL, USA). The study was conducted in accordance with the International Council for Harmonisation of Technical Requirements for Pharmaceuticals for Human Use (ICH), Guideline for GCP: Consolidated Guidance (E6), and applicable regulatory requirements(s) including clinical research guidelines established by the Basic Principles defined in the U.S. 21 CFR Parts 50, 56, and 312 and the principles enunciated in the Declaration of Helsinki (revised version Fortaleza 2013). The clinical protocol and informed consent form were reviewed and approved by an Institutional Review Board (IRB; Advarra IRB, 6100 Merriweather Drive, Suite 600, Columbia, MD 21,044; Quotient Protocol No. SRP-101 and Quotient Sciences Study No. QSC205130; Quotient Sciences Miami, 3898 NW 7th Street, Miami, FL 33,126.). The study comprises a SAD (Part 1) assessment that includes a food effect assessment that contributes data to inform a subsequent MAD (Part 2) dose-ranging study. Safety measurements were collected throughout the study for all subjects. Blood samples were collected to determine the PK parameters of SRP-001 (ClinicalTrials.gov identifier: NCT05484414) (02/08/2022).
# [2] = 28-day oral toxicity study with 14-day recovery (GLP); type: in vivo, dog; conditions: both sexes, Beagle, dog, in vivo, oral; given T.I.D. for 28 days; read-out: No adverse effect level (NOAEL)
# Method: (§1) SRP-001 was supplied by Olon Ricerca Bioscience as an off-white powder. The test article was then prepared into dosing suspensions for oral administration via gavage (Calvert Labs/Altasciences, Scott Township, PA USA). Thirty-two experimentally naïve Beagle dogs (16 males and 16 females), 8–9 months old and weighing 6.7–10.5 kg for males and females at the outset of the study, were administered 0, 165, 330, or 495 mg/kg/d. Animals were dosed three times daily (3–5 h between doses) for 28 consecutive days. Prior to this dosing schedule, the dosing was initiated with once daily dosing at 0, 100, 300, or 900 mg/kg at a dose volume of 5 to 10 ml/kg. Due to adverse clinical signs noted following dosing of all groups at a dose volume of 10 ml/kg, dosing of the animals was suspended on day 2 for males and day 1 for females. The study was restarted with T.I.D. dosing in lower dose volume to reduce vehicle-related toxicity.
# (§2) In-life data from the initial start of the study using once daily dosing were not included in the report but are maintained in the study file. Following the restart of the study, the study was conducted as follows. Mortality/morbidity was performed twice daily and once prior to the scheduled sacrifice. Animals were observed prior to each dose administration and 1–3 h after each dose administration. Animals were also observed once daily on non-dosing days and once prior to scheduled sacrifice. Body weights were recorded prior to randomization/selection, prior to the first dose administration on day 1 and weekly thereafter. Food consumption was determined daily. Ophthalmology examinations and electrocardiograms were performed before treatment initiation and during the last week of dosing. Blood for evaluation of hematology, coagulation and clinical chemistry and urine for urinalysis was collected prior to treatment initiation and on days 29 and 43. Blood for toxicokinetic evaluation was collected at selected timepoints on days 1 and 28. All surviving animals were sacrificed on day 29 or day 43. Selected tissues were harvested at necropsy, selected organs weighed, and selected tissues evaluated microscopically.
# (§3) Due to the limited magnitude of the changes in hematology parameters and the corresponding changes in reticulocytes, this finding was not considered adverse.
# (§4) This finding was indicative of the biliary system starting to be overwhelmed and was considered adverse. Other microscopic findings of the liver included Kupffer cell pigment, Kupffer cell erythrophagocytosis, and Kupffer cell hypertrophy/hyperplasia. The Kupffer cell changes were thought to be, at least in part, due to phagocytosis of erythrocytes resulting in the accumulation of cytoplasmic pigment and increased demand for Kupffer cells resulting in hypertrophy/hyperplasia. These microscopic changes correlated with increased liver organ weights. Microscopic evaluation also identified thyroid gland follicular cell hypertrophy.
# (§5) Only microscopic changes in Kupffer cell pigment and erythrophagocytosis and minimal increased erythroid cellularity of the bone marrow were still present in Group-4 animals following the recovery period. Exposure to SRP-001 was dose-dependent and generally dose-proportional to greater than dose-proportional from 165 to 330 mg/kg/d and less than dose-proportional from 330 to 495 mg/kg/d. Exposure to SRP-001 following 28 consecutive days of oral dosing was 2 to 5 times less than exposure observed on day 1. Based on the clinical signs, microscopic changes, and clinical pathology changes, the no-adverse-effect level for SRP-001 was 330 mg/kg/d when given T.I.D. for 28 d.
# beagle dogs = test: as above; type: in vivo, dog
# Method: as §1, §2, §3, §4, §5
# [3] = both, Beagle, dog, in vivo, po, 28 d
smiles,measurement,setting,value
"CCN(CC)C(=O)c1ccccc1S(=O)(=O)NCC(=O)Nc1ccc(O)cc1 [SRP-001, N,N-diethyl-2-[[2-(4-hydroxyanilino)-2-oxo-ethyl]sulfamoyl]benzamide]",PK parameters on Day 5 versus Day 1,[1]; Phase 1 MAD cohort,decrease
same,half-life,"[1]; 500 mg, MAD, 500 mg dose, Day 1, read-out: Geometric mean T1/2 (converted)",3.06 h
same,half-life,"[1]; 500 mg, MAD, 500 mg dose, Day 5, read-out: Geometric mean T1/2 (converted)",4.92 h
same,half-life,"[1]; 1000 mg, MAD, 1,000 mg dose, Day 1, read-out: Geometric mean T1/2 (converted)",4.05 h
same,half-life,"[1]; 1000 mg, MAD, 1,000 mg dose, Day 5, read-out: Geometric mean T1/2 (converted)",9.77 h
same,half-life,"[1]; MAD cohorts, read-out: Arithmetic mean T1/2 (converted)",5.57 h
same,half-life,"[1]; Phase 1 trial, read-out: Half-life",4.9 to 9.8 h
same,NOAEL at 28 d,[2],330 mg/kg/day
same,"Body weights, food consumption, ophthalmology, electrocardiology, coagulation, urinalysis",beagle dogs; 28 days,No SRP-001 related changes
same,Reversibility after 14-day recovery period,"beagle dogs; both, Beagle, dog, in vivo, 14 d",nearly all SRP-001-related changes observed on day 29 were reversible
same,Doses without treatment-related adverse effects,beagle dogs; [3],up to 330 mg/kg/day
same,Exposure after 28 consecutive days relative to day 1,beagle dogs; [3],2-5 times less
same,Clinical chemistry parameters,"beagle dogs; dog, in vivo",increases in triglycerides and alkaline phosphatase and decreases in cholesterol
same,Clinical signs,"beagle dogs; dog, in vivo","emesis, loose feces, and salivation"
same,Hematology parameters,"beagle dogs; dog, in vivo","decreases in red blood cells, hemoglobin, hematocrit, and mean corpuscular hemoglobin concentration"
same,Reversibility after 14-day recovery period,"beagle dogs; dog, in vivo",nearly all SRP-001 related changes observed on Day 29 were reversible
